Assay results as given in publication PMC7815396, “Hypoglycemic Effect of Calea urticifolia (Mill.) DC” (Evidence-based Complementary and Alternative Medicine : eCAM, 2021).

Assays:
[1] = biological target: T1, alpha-glucosidases from Saccharomyces cerevisiae; assay: p-nitrophenol release at […] nm; type: biochemical; conditions: 2 mM p-nitrophenyl-alpha-D-glucopyranoside; 0.1 M phosphate pH 6.8
T1 construct: gene MAL12; commercial yeast enzyme (Sigma G5003), native

[2] = biological target: T2, alpha-glucosidases from rat intestine; assay: p-nitrophenol release at […] nm; type: biochemical; conditions: 2 mM p-nitrophenyl-alpha-D-glucopyranoside; 0.1 M phosphate pH 6.8; crude intestinal extract
T2 construct: gene Si; crude rat intestinal extract (Sigma I1630); enzymes not separated

S. cerevisiae / α-Glucosidase enzymes / IC50 [1]: 231.9 µg/mL
Rat intestine / α-Glucosidase enzymes / IC50 [2]: 18.6 µg/mL
SMILES: C[C@H]1O[C@H](O[C@H]2[C@H](O)[C@@H](O)[C@@H](O[C@H]3[C@H](O)[C@@H](O)C(O)O[C@@H]3CO)O[C@@H]2CO)[C@H](O)[C@@H](O)[C@@H]1N[C@H]1C=C(CO)[C@@H](O)[C@H](O)[C@H]1O (some centres unmarked) [Acarbose]
